Converted amounts (≈) assume the structure as drawn.
Assays:
Type in all cases: functional
Staphylococcus aureus [1] = experiment: Antibacterial activity against Staphylococcus aureus ATCC 29213 incubated for 18 hrs by serial two-fold dilution method
Staphylococcus aureus [2] = experiment: Antibacterial activity against methicillin resistant Staphylococcus aureus ATCC 33592 incubated for 18 hrs by serial two-fold dilution method
[3] = system: Staphylococcus epidermidis; experiment: Antibacterial activity against Staphylococcus epidermidis ATCC 12228 incubated for 18 hrs by serial two-fold dilution method
Staphylococcus aureus [4] = experiment: Antibacterial activity against methicillin resistant Staphylococcus aureus ATCC 43300 incubated for 18 hrs by serial two-fold dilution method

Row | SMILES | MIC (Staphylococcus aureus [1]) | MIC (Staphylococcus aureus [2]) | MIC [3] | MIC (Staphylococcus aureus [4])
1 | C/C(O)=C1\C(=O)[C@@H]2Cc3c([nH]c4ccccc34)[C@@H](C)N2C1=O | > 128 µg/mL | – | – | –
2 | O=C1CC(=O)N2[C@H](c3ccc(-c4ccc(F)cc4)cc3)c3[nH]c4ccccc4c3C[C@@H]12 | > 4 µg/mL | > 4 µg/mL | > 4 µg/mL | –
3 | C/C(O)=C1\C(=O)[C@@H]2Cc3c([nH]c4ccccc34)[C@@H](c3ccc(-c4ccc(C(F)(F)F)cc4)o3)N2C1=O | 0.25 µg/mL (≈ 0.508 µM) | 0.25 µg/mL (≈ 0.508 µM) | 0.25 µg/mL (≈ 0.508 µM) | 0.25 µg/mL (≈ 0.508 µM)
4 | C/C(O)=C1\C(=O)[C@@H]2Cc3c([nH]c4ccccc34)[C@@H](c3ccc4ccccc4c3)N2C1=O | 8 µg/mL (≈ 19.6 µM) | – | – | –
5 | Cc1ccc(C(=O)OC2=CC(=O)N3[C@H](c4ccc(-c5cc(F)cc(F)c5)cc4)c4[nH]c5ccccc5c4C[C@@H]23)cc1 | > 4 µg/mL | > 4 µg/mL | > 4 µg/mL | –
6 | Cc1ccc(/C(O)=C2\C(=O)[C@@H]3Cc4c([nH]c5ccccc45)[C@@H](c4ccc(-c5cc(F)cc(F)c5)cc4)N3C2=O)cc1 | 0.5 µg/mL (≈ 0.915 µM) | 0.5 µg/mL (≈ 0.915 µM) | 0.25 µg/mL (≈ 0.457 µM) | –
7 | O=C(OC1=CC(=O)N2[C@H](c3ccc(-c4cc(F)cc(F)c4)cc3)c3[nH]c4ccccc4c3C[C@@H]12)c1ccc2ccccc2c1 | 4 µg/mL (≈ 6.87 µM) | 2 µg/mL (≈ 3.43 µM) | > 4 µg/mL | –
8 | C/C(O)=C1\C(=O)[C@@H]2Cc3c(n(S(=O)(=O)c4ccc(C)cc4)c4ccccc34)[C@@H](c3ccc(-c4ccc(C)cc4)cc3)N2C1=O | 8 µg/mL (≈ 13.3 µM) | 8 µg/mL (≈ 13.3 µM) | 2 µg/mL (≈ 3.32 µM) | –
9 | COc1ccc([C@@H]2c3[nH]c4ccccc4c3C[C@H]3C(=O)/C(=C(\C)O)C(=O)N23)cc1 | 4 µg/mL (≈ 10.3 µM) | – | – | –
10 | O=C(OC1=CC(=O)N2[C@H](c3ccc(-c4cc(F)cc(F)c4)cc3)c3[nH]c4ccccc4c3C[C@@H]12)c1ccccc1 | > 4 µg/mL | > 4 µg/mL | > 4 µg/mL | –
11 | C/C(O)=C1\C(=O)[C@@H]2Cc3c([nH]c4ccccc34)[C@@H](c3ccccc3)N2C1=O | 8 µg/mL (≈ 22.3 µM) | – | – | –
12 | C/C(O)=C1\C(=O)[C@@H]2Cc3c([nH]c4ccccc34)[C@@H](c3ccc(-c4ccccc4C)cc3)N2C1=O | 0.125 µg/mL (≈ 0.279 µM) | 0.25 µg/mL (≈ 0.557 µM) | 0.5 µg/mL (≈ 1.11 µM) | –
13 | O=C(OC1=CC(=O)N2[C@H](c3ccc(-c4cc(F)cc(F)c4)cc3)c3[nH]c4ccccc4c3C[C@@H]12)c1cccs1 | > 4 µg/mL | > 4 µg/mL | > 4 µg/mL | –
14 | C/C(O)=C1\C(=O)[C@@H]2Cc3c([nH]c4ccccc34)[C@@H](c3ccc(F)cc3)N2C1=O | 4 µg/mL (≈ 10.6 µM) | – | – | –
15 | C/C(O)=C1\C(=O)[C@@H]2Cc3c([nH]c4ccccc34)[C@@H](c3ccc(-c4cc(F)c(F)c(F)c4)cc3)N2C1=O | 0.5 µg/mL (≈ 1.02 µM) | 1 µg/mL (≈ 2.05 µM) | 1 µg/mL (≈ 2.05 µM) | –
16 | CCn1c2c(c3ccccc31)C[C@H]1C(=O)/C(=C(\C)O)C(=O)N1[C@@H]2c1ccc(-c2ccc(F)cc2)cc1 | 0.25 µg/mL (≈ 0.52 µM) | 0.25 µg/mL (≈ 0.52 µM) | 0.25 µg/mL (≈ 0.52 µM) | 0.125 µg/mL (≈ 0.26 µM)
17 | O=C1CC(=O)N2[C@H](c3ccc(-c4cc(F)cc(F)c4)cc3)c3[nH]c4ccccc4c3C[C@@H]12 | > 4 µg/mL | 4 µg/mL (≈ 9.34 µM) | > 4 µg/mL | –
18 | C/C(O)=C1\C(=O)[C@@H]2Cc3c([nH]c4ccccc34)[C@@H](c3ccc(-c4ccccc4F)cc3)N2C1=O | 0.125 µg/mL (≈ 0.276 µM) | 0.25 µg/mL (≈ 0.553 µM) | 0.25 µg/mL (≈ 0.553 µM) | 0.25 µg/mL (≈ 0.553 µM)
19 | O=C1CC(=O)N2[C@H](c3ccc(-c4ccc(OC(F)(F)F)cc4)cc3)c3[nH]c4ccccc4c3C[C@@H]12 | > 4 µg/mL | > 4 µg/mL | > 4 µg/mL | –
20 | CCc1ccc(-c2ccc([C@@H]3c4[nH]c5ccccc5c4C[C@H]4C(=O)/C(=C(\C)O)C(=O)N34)cc2)cc1 | 0.5 µg/mL (≈ 1.08 µM) | 0.25 µg/mL (≈ 0.54 µM) | 0.25 µg/mL (≈ 0.54 µM) | 0.25 µg/mL (≈ 0.54 µM)
21 | C/C(O)=C1\C(=O)[C@@H]2Cc3c([nH]c4ccccc34)[C@@H](c3ccc(-c4ccc(C(F)(F)F)cc4)cc3)N2C1=O | 0.063 µg/mL (≈ 0.125 µM) | 0.25 µg/mL (≈ 0.498 µM) | 0.063 µg/mL (≈ 0.125 µM) | –
22 | C/C(O)=C1\C(=O)[C@@H]2Cc3c([nH]c4ccccc34)[C@@H](c3ccccn3)N2C1=O | 64 µg/mL (≈ 178 µM) | – | – | –
23 | O=C1CC(=O)N2[C@H](c3ccc(-c4ccc(C(F)(F)F)cc4)cc3)c3[nH]c4ccccc4c3C[C@@H]12 | > 4 µg/mL | > 4 µg/mL | 4 µg/mL (≈ 8.69 µM) | –
24 | O=C(OC1=CC(=O)N2[C@H](c3ccc(-c4cc(F)cc(F)c4)cc3)c3[nH]c4ccccc4c3C[C@@H]12)c1ccc(F)cc1 | > 4 µg/mL | > 4 µg/mL | > 4 µg/mL | –
25 | C/C(O)=C1\C(=O)[C@@H]2Cc3c(n(CC4CC4)c4ccccc34)[C@@H](c3ccc(-c4ccc(F)cc4)cc3)N2C1=O | 0.125 µg/mL (≈ 0.247 µM) | 0.125 µg/mL (≈ 0.247 µM) | 0.25 µg/mL (≈ 0.494 µM) | 0.125 µg/mL (≈ 0.247 µM)
26 | C/C(O)=C1\C(=O)[C@@H]2Cc3c([nH]c4ccccc34)[C@@H](c3ccc(C(F)(F)F)cc3)N2C1=O | 2 µg/mL (≈ 4.69 µM) | – | – | –
27 | C/C(O)=C1\C(=O)[C@@H]2Cc3c(n(C)c4ccccc34)[C@@H](c3ccc(-c4ccc(F)cc4)cc3)N2C1=O | 0.25 µg/mL (≈ 0.536 µM) | 0.5 µg/mL (≈ 1.07 µM) | 0.063 µg/mL (≈ 0.135 µM) | –
28 | C/C(O)=C1\C(=O)[C@@H]2Cc3c([nH]c4ccccc34)[C@@H](c3ccc(F)cc3F)N2C1=O | 8 µg/mL (≈ 20.3 µM) | – | – | –

— ChEMBL document CHEMBL5608208, “Design, synthesis of griseofamine A derivatives and development of potent antibacterial agents against MRSA” (Eur J Med Chem, 2024)
